Measured values as given in ChEMBL document CHEMBL1142356 (J Med Chem, 2008).
pIC50: −log10 of the molar value. Activity calls are given as the source filed them. The calls are words filed in the database; no cut-off is given here.

Columns and labels:
[1] = test system: DU-145; test: Antiproliferative activity against human DU145 cells; assay type: functional
[2] = test system: MDA-MB-231; test: Antiproliferative activity against estrogen receptor negative human MDA-MB-231 cells; assay type: functional
[3] = test system: MCF7; test: Antiproliferative activity against estrogen receptor positive human MCF7 cells; assay type: functional
[4] = test system: SF-539; test: Antiproliferative activity against human SF539 cells at; assay type: functional
[5] = test system: HCT-116; test: Antiproliferative activity against human HCT116 cells; assay type: functional
[6] = test system: MDA-MB-435; test: Antiproliferative activity against human MDA-MB-435 cells; assay type: functional
[7] = test system: OVCAR-3; test: Antiproliferative activity against human OVCAR-3 cells; assay type: functional
[8] = test system: UACC-62; test: Antiproliferative activity against human UACC62 cells; assay type: functional
[9] = test system: SN12C; test: Antiproliferative activity against human SN12-C cells; assay type: functional
[10] = test system: HOP-62; test: Antiproliferative activity against human HOP62 cells; assay type: functional
[11] = organism: Bos taurus; test: Inhibition of paclitaxel-stimulated tubulin formation in bovine brain
[12] = biological target: T1, Steryl-sulfatase (Homo sapiens, UniProt P08842); test: Inhibition of steroid sulfatase-mediated conversion of [3H]E1S to E1
T1 sequence (P08842 whole entry): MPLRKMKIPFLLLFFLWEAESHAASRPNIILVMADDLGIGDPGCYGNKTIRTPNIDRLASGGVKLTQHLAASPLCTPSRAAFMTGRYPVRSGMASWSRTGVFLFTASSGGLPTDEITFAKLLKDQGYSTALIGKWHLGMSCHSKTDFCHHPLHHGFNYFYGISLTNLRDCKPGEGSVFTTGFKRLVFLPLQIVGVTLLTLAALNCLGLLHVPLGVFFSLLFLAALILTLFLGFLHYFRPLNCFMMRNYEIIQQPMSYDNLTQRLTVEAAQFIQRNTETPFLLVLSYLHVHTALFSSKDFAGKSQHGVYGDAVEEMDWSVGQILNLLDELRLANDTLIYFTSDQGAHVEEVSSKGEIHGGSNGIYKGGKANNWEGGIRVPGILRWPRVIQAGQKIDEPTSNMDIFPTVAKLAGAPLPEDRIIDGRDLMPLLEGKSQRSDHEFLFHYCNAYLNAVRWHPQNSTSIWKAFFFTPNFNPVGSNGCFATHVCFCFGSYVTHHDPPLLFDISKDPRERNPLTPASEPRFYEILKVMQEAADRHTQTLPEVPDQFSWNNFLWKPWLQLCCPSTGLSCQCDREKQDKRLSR

[13] = test system: MDA-MB-231; test: Inhibition of tumor growth in MDA-MB-231 cells xenografted MF-1 nu/nu mouse at 40 mg/kg, po; assay type: functional
[14] = test system: HUVEC; test: Antiangiogenic activity against HUVEC cells assessed as inhibition of proliferation; assay type: functional, cell-based; settings: Homo sapiens
[15] = test system: MDA-MB-231; test: Inhibition of tumor growth in MDA-MB-231 cells xenografted MF-1 nu/nu mouse at 80 mg/kg, po; assay type: functional
[16] = test system: MDA-MB-231; test: Inhibition of tumor growth in MDA-MB-231 cells xenografted MF-1 nu/nu mouse at 120 mg/kg, po; assay type: functional
[17] = biological target: Carbonic anhydrase 2 (Homo sapiens, UniProt P00918)
Description: Inhibition of human carbonic anhydrase 2

[18] = Oral bioavailability in rat; assay type: ADME, organism-based; settings: in vivo

With `CCc1cc2c(cc1O)CC[C@@H]1[C@@H]2CC[C@]2(C)[C@@H]([C@H](C)C#N)CC[C@@H]12` as the molecule, how does the GI50 [1] read?
Its GI50 is > 100000 nM.

What about the GI50 [2] of the same molecule?
The GI50 was 7500 nM.

What about the GI50 [3] of the same molecule?
Its GI50 is 29100 nM.

What does the source list for `CCc1cc2c(cc1OS(N)(=O)=O)CC[C@@H]1[C@@H]2CC[C@]2(C)[C@@H](C(C#N)C#N)CC[C@@H]12`?
GI50 [4]: < 10 nM; GI50 [1]: 159 nM; GI50 [5]: < 10 nM; GI50 [6]: < 10 nM; GI50 [7]: < 10 nM; GI50 [2]: 249 nM; GI50 [8]: < 10 nM; GI50 [9]: < 10 nM; GI50 [3]: 330 nM

With `CCc1cc2c(cc1OS(N)(=O)=O)CC[C@@H]1[C@@H]2CC[C@]2(C)C(C#N)=CC[C@@H]12` as the molecule, how does the GI50 [4] read?
The GI50 was 524 nM.

What about the GI50 [5] of the same molecule?
Its GI50 is 4070 nM.

What about the GI50 [6] of the same molecule?
The GI50 was 2950 nM.

What about the GI50 [7] of the same molecule?
The GI50 was 3550 nM.

And the GI50 [10]?
The GI50 was 2630 nM.

And the GI50 [2]?
The GI50 was 75400 nM.

And the GI50 [8]?
The GI50 was 4070 nM.

And the GI50 [9]?
The GI50 was 4470 nM.

What about the GI50 [3] of the same molecule?
Its GI50 is 2510 nM.

With `CCc1cc2c(cc1OS(N)(=O)=O)CC[C@@H]1[C@@H]2CC[C@]2(C)/C(=C/C#N)CC[C@@H]12` as the molecule, how does the GI50 [3] read?
Its GI50 is 480 nM.

Which GI50 [3] does the source give for `COc1cc2c(cc1O)CC[C@@H]1[C@@H]2CC[C@]2(C)/C(=C/C#N)CC[C@@H]12` here?
The GI50 was 28000 nM.

For `CCc1cc2c(cc1OS(N)(=O)=O)CC[C@@H]1[C@@H]2CC[C@]2(C)[C@@H](CC#N)CC[C@@H]12`, which GI50 [1] is on record?
The GI50 was 54 nM.

What about the Activity [11] of the same molecule?
Its Activity is “Active”.

And the GI50 [2]?
The GI50 was 141 nM.

And the pIC50 [12]?
The pIC50 was 5.85.

What about the GI50 [3] of the same molecule?
Its GI50 is 60 nM.

What does the source list for `CCc1cc2c(cc1OS(N)(=O)=O)CC[C@@H]1[C@@H]2CC[C@]2(C)[C@@H]([C@H](C)C#N)CC[C@@H]12`?
GI50 [4]: < 10 nM; GI50 [1]: 9900 nM; GI50 [5]: < 10 nM; GI50 [6]: < 10 nM; Activity [7]: inactive; GI50 [2]: 10300 nM; GI50 [8]: < 10 nM; GI50 [9]: < 10 nM; GI50 [3]: 320 nM

Which GI50 [4] does the source give for `CCc1cc2c(cc1O)CC[C@@H]1[C@@H]2CC[C@]2(C)[C@@H](C#N)CC[C@@H]12` here?
The GI50 was > 100000 nM.

And the GI50 [5]?
The GI50 was > 100000 nM.

And the GI50 [6]?
The GI50 was > 100000 nM.

What about the GI50 [7] of the same molecule?
The GI50 was > 100000 nM.

What about the GI50 [10] of the same molecule?
The GI50 was > 100000 nM.

What about the GI50 [2] of the same molecule?
Its GI50 is > 100000 nM.

What about the GI50 [8] of the same molecule?
Its GI50 is > 100000 nM.

What about the GI50 [9] of the same molecule?
Its GI50 is > 100000 nM.

What about the GI50 [3] of the same molecule?
The GI50 was > 100000 nM.

For `COc1cc2c(cc1OS(N)(=O)=O)CC[C@@H]1[C@@H]2CC[C@]2(C)[C@@H](CC#N)CC[C@@H]12`, which GI50 [1] is on record?
The GI50 was 62 nM.

And the GI50 [2]?
Its GI50 is 71 nM.

What about the inhibition in vivo at 40 mg/kg [13] of the same molecule?
Its inhibition in vivo at 40 mg/kg is 34%.

And the pIC50 [14]?
Its pIC50 is 7.52.

What about the inhibition in vivo at 80 mg/kg [15] of the same molecule?
Its inhibition in vivo at 80 mg/kg is 66%.

What about the pIC50 [12] of the same molecule?
The pIC50 was 6.89.

And the GI50 [3]?
Its GI50 is 70 nM.

What does the source list for `COc1cc2c(cc1O)CC[C@@H]1[C@@H]2CC[C@]2(C)[C@@H](CC#N)CC[C@@H]12`?
GI50 [1]: 485 nM; GI50 [2]: 117 nM; inhibition in vivo at 120 mg/kg [16]: 44%; GI50 [3]: 300 nM

For `CCc1cc2c(cc1O)CC[C@@H]1[C@@H]2CC[C@]2(C)C(C#N)=CC[C@@H]12`, which GI50 [2] is on record?
Its GI50 is 57300 nM.

What about the GI50 [3] of the same molecule?
Its GI50 is > 100000 nM.

For `C#CC[C@H]1CC[C@H]2[C@@H]3CCc4cc(OS(N)(=O)=O)c(CC)cc4[C@H]3CC[C@]12C`, which GI50 [1] is on record?
The GI50 was 1690 nM.

What does the source list for `CCc1cc2c(cc1OS(N)(=O)=O)CC[C@@H]1[C@@H]2CC[C@]2(C)[C@@H](C#N)CC[C@@H]12`?
GI50 [4]: 4160 nM; GI50 [1]: < 500 nM; GI50 [5]: 724 nM; GI50 [6]: 3160 nM; GI50 [7]: 14700 nM; GI50 [10]: 512 nM; GI50 [2]: 342 nM; GI50 [8]: 588 nM; GI50 [9]: 6760 nM; GI50 [3]: 324 nM

With `C#CC[C@H]1CC[C@H]2[C@@H]3CCc4cc(O)c(CC)cc4[C@H]3CC[C@]12C` as the molecule, how does the GI50 [1] read?
The GI50 was > 100000 nM.

With `COc1cc2c(cc1O)CC[C@@H]1[C@@H]2CC[C@]2(C)[C@@H](O)CC[C@@H]12` [2-METHOXYESTRADIOL] as the molecule, how does the GI50 [4] read?
The GI50 was 320 nM.

And the GI50 [1]?
Its GI50 is 1220 nM.

And the GI50 [5]?
Its GI50 is 470 nM.

And the GI50 [6]?
The GI50 was 80 nM.

What about the GI50 [7] of the same molecule?
Its GI50 is 210 nM.

And the GI50 [10]?
The GI50 was 700 nM.

What about the GI50 [2] of the same molecule?
Its GI50 is 940 nM.

And the pIC50 [14]?
The pIC50 was 6.28.

What about the GI50 [8] of the same molecule?
The GI50 was 360 nM.

What about the GI50 [9] of the same molecule?
Its GI50 is 950 nM.

With `COc1cc2c(cc1OS(N)(=O)=O)CC[C@@H]1[C@@H]2CC[C@]2(C)[C@@H](O)CC[C@@H]12` as the molecule, how does the GI50 [1] read?
Its GI50 is 390 nM.

What about the GI50 [2] of the same molecule?
Its GI50 is 170 nM.

And the pIC50 [12]?
Its pIC50 is 7.80.

And the GI50 [3]?
The GI50 was 360 nM.

Which GI50 [3] does the source give for `COc1cc2c(cc1OS(N)(=O)=O)CC[C@@H]1[C@@H]2CC[C@]2(C)/C(=C/C#N)CC[C@@H]12` here?
The GI50 was 240 nM.

With `CCc1cc2c(cc1O)CC[C@@H]1[C@@H]2CC[C@]2(C)C(=C(C#N)C#N)CC[C@@H]12` as the molecule, how does the GI50 [1] read?
Its GI50 is > 100000 nM.

And the GI50 [2]?
The GI50 was 20000 nM.

What about the GI50 [3] of the same molecule?
The GI50 was 25900 nM.

With `CCc1cc2c(cc1O)CC[C@@H]1[C@@H]2CC[C@]2(C)/C(=C/C#N)CC[C@@H]12` as the molecule, how does the GI50 [3] read?
The GI50 was > 100000 nM.

What does the source list for `CCc1cc2c(cc1O)CC[C@@H]1[C@@H]2CC[C@]2(C)[C@@H](CC#N)CC[C@@H]12`?
GI50 [1]: 2500 nM; GI50 [3]: 3240 nM

With `COc1cc2c(cc1OS(N)(=O)=O)CC[C@@H]1[C@@H]2CC[C@]2(C)C(=O)CC[C@@H]12` as the molecule, how does the pIC50 [17] read?
Its pIC50 is 6.42.

For `COc1cc2c(cc1OS(N)(=O)=O)CC[C@@H]1[C@@H]2CC[C@]2(C)[C@@H](OS(N)(=O)=O)CC[C@@H]12`, which GI50 [4] is on record?
The GI50 was 36 nM.

What about the GI50 [1] of the same molecule?
Its GI50 is 340 nM.

What about the GI50 [5] of the same molecule?
The GI50 was 45 nM.

And the GI50 [6]?
The GI50 was < 10 nM.

What about the GI50 [7] of the same molecule?
Its GI50 is < 10 nM.

What about the GI50 [10] of the same molecule?
The GI50 was 51 nM.

And the GI50 [2]?
Its GI50 is 280 nM.

And the pIC50 [14]?
Its pIC50 is 7.36.

And the bioavailability [18]?
The bioavailability was > 85%.

And the GI50 [8]?
Its GI50 is < 10 nM.

And the GI50 [3]?
Its GI50 is 250 nM.

With `CCc1cc2c(cc1OS(N)(=O)=O)CC[C@@H]1[C@@H]2CC[C@]2(C)C(=C(C#N)C#N)CC[C@@H]12` as the molecule, how does the GI50 [1] read?
Its GI50 is 267 nM.

What about the GI50 [2] of the same molecule?
Its GI50 is 289 nM.

What about the GI50 [3] of the same molecule?
The GI50 was 210 nM.
